The source of these data is patent US7256207B2, “Inhibitors of cathepsin S” (IRM LLC, priority 2003, dated 2007).

Assay type in all cases: biochemical
Assay [1] addresses Cathepsin S (Homo sapiens, UniProt P25774). Put plainly: Cathepsin S inhibition assay, fluorogenic peptide substrate. The conditions noted are these: Cathepsin S inhibition constant; pH5.5, 20 minutes preincubation at room temperature; read-out: Ki Cat. S. The method, then:
(§1) The optimal substrate for cathepsin S, acetyl-histidine-proline-valine-lysine-amino carbamoyl coumarin, was identified from screening a combinatorial library of fluorogenic peptide substrates (Harris, J. L., B. J. Backes, et al. Proc Natl Acad Sci U S A 2000, 97(14), 7754-9). Kinetic measurements are performed in a total reaction volume of 30 μl in 384-well microtiter plates. Cathepsin S, at a final concentration of 0.3-3 nM (active site), is incubated with the compounds at twelve varying concentrations in a buffer containing 100 mM NaAc (pH5.5), 1 mM EDTA, 100 mM NaCl, 0.01% Brij-35 for 20 minutes at room temperature. Control reactions in the absence of inhibitor are performed in replicates of 24. The reactions are initiated by adding the substrate, acetyl-histidine-proline-valine-lysine-amino carbamoyl coumarin, to a final concentration of 50 μM. The rate of substrate hydrolysis is measured by monitoring the increase in fluorescence at an excitation wavelength of 380 nm and an emission wavelength of 450 nm that results from cleavage of the aniline bond in the substrate by the enzyme. The apparent inhibition constants for the compounds are determined from the enzyme progress curves (Kuzmic, P., K. C. Elrod, et al. Anal Biochem 2000, 286(1), 45-50) and are then used to calculate the inhibition constants for competitive inhibitors.

Assay [2] has as its target T1, Cathepsin K (Homo sapiens, UniProt P43235).
T1 sequence (P43235 115-329): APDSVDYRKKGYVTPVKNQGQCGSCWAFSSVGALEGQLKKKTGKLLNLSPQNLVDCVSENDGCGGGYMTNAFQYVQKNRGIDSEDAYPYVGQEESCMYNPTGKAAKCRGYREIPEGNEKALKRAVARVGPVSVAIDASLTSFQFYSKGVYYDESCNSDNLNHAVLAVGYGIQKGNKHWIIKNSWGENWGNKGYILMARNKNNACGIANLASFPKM
Put plainly: Cathepsin K inhibition assay, fluorogenic peptide substrate (selectivity for Cat. S over Cat. K). The settings on record: ratio of cathepsin K inhibition constant to cathepsin S inhibition constant. The method, then:
as §1, with “cathepsin K, acetyl-lysine-histidine-proline-lysine-amino” for “cathepsin S, acetyl-histidine-proline-valine-lysine-amino”, “Cathepsin K,” for “Cathepsin S,”, “of 3.5” for “of 0.3-3”, “substrate, acetyl-lysine-histidine-proline-lysine-amino” for “substrate, acetyl-histidine-proline-valine-lysine-amino”, “of 40” for “of 50”
(§2) Selectivity for cathepsin S in the presence of cathepsin isozymes was determined by the ratio of the cathepsin isozyme inhibition constant of a compound of the present invention to the cathepsin S inhibition constant of the same compound. Preferred compounds of the present invention selective for cathepsin S have ratios of greater than 10. More preferred compounds of the present invention selective for cathepsin S have ratios of greater than 100. Most preferred compounds of the present invention selective for cathepsin S have ratios of greater than 1000.

Assay [3] has as its target Cathepsin L (Homo sapiens, UniProt P07711). As to the kind of experiment: Cathepsin L inhibition assay, fluorogenic peptide substrate (selectivity for Cat. S over Cat. L). The conditions noted are these: ratio of cathepsin L inhibition constant to cathepsin S inhibition constant. The method, then:
as §1, with “cathepsin L, acetyl-histidine-lysine-phenylalanine-lysine-amino” for “cathepsin S, acetyl-histidine-proline-valine-lysine-amino”, “Cathepsin L,” for “Cathepsin S,”, “of 0.1” for “of 0.3-3”, “substrate, acetyl-histidine-lysine-phenylalanine-lysine-amino” for “substrate, acetyl-histidine-proline-valine-lysine-amino”, “of 20” for “of 50”
as §2

The target of assay [4] is Cathepsin B (Homo sapiens, UniProt P07858). Put plainly: Cathepsin B inhibition assay, fluorogenic peptide substrate (selectivity for Cat. S over Cat. B). The settings on record: ratio of cathepsin B inhibition constant to cathepsin S inhibition constant. The method, then:
as §1, with “B,” for “S,”, “1.5” for “0.3-3”, “[…].” for “50 μM.”
as §2

Sequence of Cathepsin S (P25774 115-331, species assumed): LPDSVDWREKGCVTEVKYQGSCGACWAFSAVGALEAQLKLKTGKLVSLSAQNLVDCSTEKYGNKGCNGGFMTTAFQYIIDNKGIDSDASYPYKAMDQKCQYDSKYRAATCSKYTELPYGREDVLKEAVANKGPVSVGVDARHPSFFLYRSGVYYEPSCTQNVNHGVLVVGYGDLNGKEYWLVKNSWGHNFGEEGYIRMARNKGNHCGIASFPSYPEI
Sequence of Cathepsin L (P07711 114-333, species assumed): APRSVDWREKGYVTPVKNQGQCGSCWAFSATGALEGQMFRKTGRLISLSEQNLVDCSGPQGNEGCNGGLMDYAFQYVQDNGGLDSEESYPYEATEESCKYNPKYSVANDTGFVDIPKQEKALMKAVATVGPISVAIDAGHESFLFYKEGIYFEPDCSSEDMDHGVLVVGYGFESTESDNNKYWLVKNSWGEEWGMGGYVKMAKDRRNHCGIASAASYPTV

By Ki is commonly meant the dissociation constant of the complex between target and ligand, obtained from inhibition or displacement. On to `C[C@@H](CNc1ccc(OC(F)(F)F)cc1)NC(=O)O[C@@H](CC1CCCC1)Cn1cnc2cc(Cl)c(Cl)cc21` [Example 10, 1-(S)-Cyclopentylmethyl-2-(5,6-dichloro-benzimidazol-1-yl)-ethyl [2-(4-trifluoromethoxy-phenylamino)-1-(S)-methyl-ethyl]carbamate], for which the Ki in assay [1] was less than 100 nM. In addition, the “Selectivity for Cat. S over Cat. K” value in assay [2] is “+ (+, >10)”. Also, the “Selectivity for Cat. S over Cat. L” value in assay [3] was “+ (+, >10)”. Further, in assay [4], the “Selectivity for Cat. S over Cat. B” value is reported as “+++ (+++, >1000)”.
Take `C[C@@H](CN1CCc2cc(F)ccc21)NC(=O)O[C@@H](CC1CCCC1)Cn1cnc2ccccc21` [Example 6, 2-(Benzimidazol-1-yl)-1-(S)-cyclopentylmethyl-ethyl [2-(5-fluoro-2,3-dihydro-indol-1-yl)-1-(S)-methyl-ethyl]carbamate]: in assay [1], the Ki is less than 100 nM. Further, the “Selectivity for Cat. S over Cat. K” value in assay [2] is “+ (+, >10)”. Further, in assay [3], the “Selectivity for Cat. S over Cat. L” value was “++ (++, >100)”. The “Selectivity for Cat. S over Cat. B” value in assay [4] is recorded as “+++ (+++, >1000)”.
